Assay results taken from patent publication US20230310427A1, “NEW THERAPEUTIC USE OF RILPIVIRINE” (UNIVERSITY OF SOUTH AUSTRALIA, priority 2020, published 2023).

What was measured:
[1] = test system: auto-phosphorylation of Aurora A at Thr288 in HL-60 cells; assay: Western blot, Aurora A auto-phosphorylation; type: cell-based; conditions: 24 hour, 5 µM, 10 µM and 20 µM
Procedure: (§1) For Western blotting, cells (8×10^5) were seeded in a culture dish with 10 mL medium and incubated overnight at 37° C., 5% CO2. Untreated and compound-treated cells were lysed using phosphate lysis buffer and protease inhibitors. The protein concentration of each sample was determined by Bio-Rad DC™ protein assay (Bio-Rad Laboratories, Hercules, CA, United States of America). The protein was deactivated at 95° C. for 5 min and then resolved on 4-20% polyacrylamide gels by electrophoresis. Proteins were transferred to polyvinylidene difluoride (PDVF) membrane and blocked for 1 h with 10% skimmed milk (SM) in Tris-buffered saline and Tween (TBST). After adding primary antibody, the membranes were incubated overnight on a rocker in a 4° C. cold room. The following day, membranes were washed in TBST (4×20 min), incubated for at least 1 h at room temperature with the appropriate horseradish peroxidase conjugated secondary antibody. Following this, the blots were washed with TBST (4×20 min) again. The blots were then treated with Western blotting detection reagent and the band intensity was determined using a Bio-Rad ChemiDoc™ MP imaging system (Bio-Rad Laboratories). All the antibodies used for protein detection were from Cell Signaling Technology (Danvers, MA, United States of America). […]

[2] = test system: auto-phosphorylation of Aurora A at Thr288 in NB4 cells; assay: Western blot, Aurora A auto-phosphorylation; type: cell-based; conditions: 24 hour, 5 µM, 10 µM and 20 µM
Procedure: as §1

[3] = test system: expanded panel of 429 different kinases; assay: Kinase profiling, expanded panel; type: biochemical; conditions: 1 µM
Procedure: (§2) The ability of compounds to inhibit kinases was measured using ADP-Glo^Tm assay kits (Promega, Madison, WI, United States of America) or externally using radioisotope based assays (Reaction Biology Corporation, Malvern, PA, United States of America and Eurofins discovery services, France). The ADP-Glo assay was performed as reported previously (Basnet SK et al., Mol Pharmacol 88(5):935-948, 2015).The assay plate was read for luminescence using Envision multi-label plate reader (PerkinElmer, Waltham, MA, United States of America). Half-maximal inhibition (IC50) values were determined from a plot of percent residual activity versus concentration of test compounds using GraphPad Prism software. Ki values were calculated from IC50 values using the Cheng-Prusoff equation: Ki= IC50/ [1 + ([ATP]/Km ATP)], where [ATP] is the ATP concentration used for the IC50 determination and Km ATP for each kinase is determined from an individual experiment.
In a subsequent kinase profiling experiment, using an expanded panel of 429 different kinases, the inhibitory activity of Rilpivirine was confirmed using a reduced concentration of 1 µM. […] The percent inhibition against Aurora A, PIM1, LYN and YES kinases were 86, 78, 77 and 83% respectively at the concentration of 1 µM of Rilpivirine. The other 424 kinases were inhibited by less than 70 % at this concentration.

Aurora A kinase = molecular target: T1, Aurora A kinase (Homo sapiens, UniProt O14965); assay: Kinase assay; type: biochemical
T1 construct: purchased Promega (ADP-Glo kits) or Reaction Biology Corporation / Eurofins discovery services (external)
T1 sequence (O14965 1-403): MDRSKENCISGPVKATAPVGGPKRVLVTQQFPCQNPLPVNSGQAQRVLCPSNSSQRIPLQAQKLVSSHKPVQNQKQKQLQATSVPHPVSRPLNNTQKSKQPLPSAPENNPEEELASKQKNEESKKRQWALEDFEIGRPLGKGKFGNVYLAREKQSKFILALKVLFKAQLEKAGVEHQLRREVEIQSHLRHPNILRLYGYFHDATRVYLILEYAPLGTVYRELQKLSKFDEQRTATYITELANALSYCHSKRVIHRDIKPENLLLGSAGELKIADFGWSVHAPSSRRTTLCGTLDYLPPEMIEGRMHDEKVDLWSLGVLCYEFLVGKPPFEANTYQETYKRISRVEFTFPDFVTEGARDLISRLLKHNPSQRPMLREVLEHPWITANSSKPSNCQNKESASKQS
Procedure: as §2

FLT3 = molecular target: T2, FLT3 (Homo sapiens, UniProt P36888); assay: Kinase assay; type: biochemical; conditions: kinase inhibition profiling (FIG. 2), concentration of 10 µM
T2 construct: purchased Promega (ADP-Glo kits) or Reaction Biology Corporation / Eurofins discovery services (external)
Procedure: as §2

YES kinase = molecular target: T3, YES kinase (Homo sapiens, UniProt P07947); assay: Kinase assay; type: biochemical; conditions: expanded panel, read-out: percent inhibition
T3 construct: purchased Promega (ADP-Glo kits) or Reaction Biology Corporation / Eurofins discovery services (external)
Procedure: as §2

LYN = molecular target: T4, LYN (Homo sapiens, UniProt P07948); assay: Kinase assay; type: biochemical; conditions: expanded panel, read-out: percent inhibition
T4 construct: purchased Promega (ADP-Glo kits) or Reaction Biology Corporation / Eurofins discovery services (external)
Procedure: as §2

PIM1 = molecular target: T5, PIM1 (Homo sapiens, UniProt P11309); assay: Kinase assay; type: biochemical
T5 construct: purchased Promega (ADP-Glo kits) or Reaction Biology Corporation / Eurofins discovery services (external)
Procedure: as §2

Aurora B kinase = molecular target: T6, Aurora B kinase (Homo sapiens, UniProt Q96GD4); assay: Kinase assay; type: biochemical; conditions: kinase inhibition profiling (FIG. 2), concentration of 10 µM
T6 construct: purchased Promega (ADP-Glo kits) or Reaction Biology Corporation / Eurofins discovery services (external)
Procedure: as §2

JAK1 = molecular target: T7, JAK1 (Homo sapiens, UniProt P23458); assay: Kinase assay; type: biochemical; conditions: kinase inhibition profiling (FIG. 2), concentration of 10 µM
T7 construct: purchased Promega (ADP-Glo kits) or Reaction Biology Corporation / Eurofins discovery services (external)
Procedure: as §2

[4] = 1 µM, expanded panel, read-out: percent inhibition
[5] = kinase inhibition profiling (FIG. 2), concentration of 10 µM

T5 sequence (P11309 whole entry): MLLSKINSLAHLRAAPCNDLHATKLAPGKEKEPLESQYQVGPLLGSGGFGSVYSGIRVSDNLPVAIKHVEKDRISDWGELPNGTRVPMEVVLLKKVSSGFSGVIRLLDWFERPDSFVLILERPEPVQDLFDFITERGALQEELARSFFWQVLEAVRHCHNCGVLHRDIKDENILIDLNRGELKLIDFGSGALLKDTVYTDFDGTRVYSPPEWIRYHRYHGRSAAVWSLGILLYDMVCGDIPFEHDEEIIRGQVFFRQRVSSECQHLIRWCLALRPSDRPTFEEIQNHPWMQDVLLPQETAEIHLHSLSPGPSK
T3 sequence (P07947 whole entry): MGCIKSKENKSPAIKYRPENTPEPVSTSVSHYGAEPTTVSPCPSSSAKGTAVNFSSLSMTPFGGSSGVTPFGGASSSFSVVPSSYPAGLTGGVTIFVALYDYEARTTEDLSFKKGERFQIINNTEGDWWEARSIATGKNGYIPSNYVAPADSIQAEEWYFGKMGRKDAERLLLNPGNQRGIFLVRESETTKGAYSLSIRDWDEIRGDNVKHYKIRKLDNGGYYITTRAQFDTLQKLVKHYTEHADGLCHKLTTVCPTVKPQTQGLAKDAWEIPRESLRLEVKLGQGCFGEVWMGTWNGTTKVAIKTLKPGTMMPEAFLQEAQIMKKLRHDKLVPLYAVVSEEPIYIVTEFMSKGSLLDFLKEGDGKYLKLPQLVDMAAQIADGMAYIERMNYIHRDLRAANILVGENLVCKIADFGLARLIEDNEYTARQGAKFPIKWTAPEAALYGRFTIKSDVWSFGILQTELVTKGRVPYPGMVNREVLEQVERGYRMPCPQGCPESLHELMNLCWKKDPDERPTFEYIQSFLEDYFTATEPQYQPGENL
T2 sequence (P36888 27-993): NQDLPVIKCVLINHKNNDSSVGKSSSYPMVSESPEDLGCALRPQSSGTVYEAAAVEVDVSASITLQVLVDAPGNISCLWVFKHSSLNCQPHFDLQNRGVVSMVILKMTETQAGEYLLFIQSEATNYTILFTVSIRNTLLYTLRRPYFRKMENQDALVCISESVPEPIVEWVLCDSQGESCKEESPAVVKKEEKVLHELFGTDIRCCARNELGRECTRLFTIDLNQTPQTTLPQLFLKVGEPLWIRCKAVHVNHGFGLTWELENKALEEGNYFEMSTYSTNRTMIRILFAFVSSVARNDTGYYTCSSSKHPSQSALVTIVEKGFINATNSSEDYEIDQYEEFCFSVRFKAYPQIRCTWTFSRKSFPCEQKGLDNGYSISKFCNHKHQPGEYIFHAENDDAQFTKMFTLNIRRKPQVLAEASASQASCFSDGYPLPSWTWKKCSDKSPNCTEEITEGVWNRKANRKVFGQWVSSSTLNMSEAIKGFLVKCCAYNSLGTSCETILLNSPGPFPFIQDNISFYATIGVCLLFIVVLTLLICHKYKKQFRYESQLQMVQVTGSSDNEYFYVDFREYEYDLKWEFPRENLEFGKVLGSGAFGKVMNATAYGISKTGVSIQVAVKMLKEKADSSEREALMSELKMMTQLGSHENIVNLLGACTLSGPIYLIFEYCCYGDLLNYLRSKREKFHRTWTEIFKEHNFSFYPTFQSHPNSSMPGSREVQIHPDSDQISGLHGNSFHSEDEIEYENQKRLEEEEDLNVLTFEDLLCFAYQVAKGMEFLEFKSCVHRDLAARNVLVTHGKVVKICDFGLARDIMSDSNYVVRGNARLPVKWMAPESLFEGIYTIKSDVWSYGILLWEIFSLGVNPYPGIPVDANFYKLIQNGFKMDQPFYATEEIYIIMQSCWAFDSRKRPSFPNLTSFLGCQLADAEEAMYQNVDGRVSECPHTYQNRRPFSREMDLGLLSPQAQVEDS
T7 sequence (P23458 whole entry): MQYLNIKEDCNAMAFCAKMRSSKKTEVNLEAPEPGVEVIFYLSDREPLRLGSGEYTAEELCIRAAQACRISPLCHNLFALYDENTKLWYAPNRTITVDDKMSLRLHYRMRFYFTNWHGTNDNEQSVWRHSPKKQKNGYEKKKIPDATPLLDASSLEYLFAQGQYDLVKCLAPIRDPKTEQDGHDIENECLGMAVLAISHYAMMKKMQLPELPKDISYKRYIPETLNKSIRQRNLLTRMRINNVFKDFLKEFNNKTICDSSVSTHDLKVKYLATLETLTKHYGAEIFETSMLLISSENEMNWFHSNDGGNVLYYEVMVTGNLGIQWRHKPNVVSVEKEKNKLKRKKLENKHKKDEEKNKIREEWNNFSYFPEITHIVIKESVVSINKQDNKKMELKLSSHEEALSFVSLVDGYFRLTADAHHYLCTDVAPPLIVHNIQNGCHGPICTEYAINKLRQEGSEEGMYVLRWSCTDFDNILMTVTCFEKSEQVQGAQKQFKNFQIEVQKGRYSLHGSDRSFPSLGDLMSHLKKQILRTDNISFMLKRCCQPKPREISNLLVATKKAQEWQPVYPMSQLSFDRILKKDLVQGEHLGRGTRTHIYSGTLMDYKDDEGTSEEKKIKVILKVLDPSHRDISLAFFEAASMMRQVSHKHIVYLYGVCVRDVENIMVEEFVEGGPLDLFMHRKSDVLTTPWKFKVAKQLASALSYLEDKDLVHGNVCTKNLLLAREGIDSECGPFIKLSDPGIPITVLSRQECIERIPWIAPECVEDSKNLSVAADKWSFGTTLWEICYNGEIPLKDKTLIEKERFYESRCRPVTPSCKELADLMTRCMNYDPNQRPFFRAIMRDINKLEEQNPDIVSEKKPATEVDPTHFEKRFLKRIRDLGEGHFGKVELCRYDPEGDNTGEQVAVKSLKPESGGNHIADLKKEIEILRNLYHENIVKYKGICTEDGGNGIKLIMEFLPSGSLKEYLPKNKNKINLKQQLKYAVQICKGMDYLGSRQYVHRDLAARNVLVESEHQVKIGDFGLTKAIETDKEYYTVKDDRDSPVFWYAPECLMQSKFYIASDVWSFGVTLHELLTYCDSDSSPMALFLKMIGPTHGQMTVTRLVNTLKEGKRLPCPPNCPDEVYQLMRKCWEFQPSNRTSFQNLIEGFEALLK
T6 sequence (Q96GD4 whole entry): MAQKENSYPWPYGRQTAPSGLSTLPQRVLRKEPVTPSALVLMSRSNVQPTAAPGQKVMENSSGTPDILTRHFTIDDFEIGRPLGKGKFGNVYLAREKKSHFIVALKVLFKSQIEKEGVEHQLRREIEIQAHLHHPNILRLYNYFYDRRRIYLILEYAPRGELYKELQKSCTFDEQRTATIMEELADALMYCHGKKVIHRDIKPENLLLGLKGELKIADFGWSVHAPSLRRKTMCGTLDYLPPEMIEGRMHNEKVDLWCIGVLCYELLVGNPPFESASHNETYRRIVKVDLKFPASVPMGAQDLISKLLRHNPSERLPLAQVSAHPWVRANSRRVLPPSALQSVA
T4 sequence (P07948 whole entry): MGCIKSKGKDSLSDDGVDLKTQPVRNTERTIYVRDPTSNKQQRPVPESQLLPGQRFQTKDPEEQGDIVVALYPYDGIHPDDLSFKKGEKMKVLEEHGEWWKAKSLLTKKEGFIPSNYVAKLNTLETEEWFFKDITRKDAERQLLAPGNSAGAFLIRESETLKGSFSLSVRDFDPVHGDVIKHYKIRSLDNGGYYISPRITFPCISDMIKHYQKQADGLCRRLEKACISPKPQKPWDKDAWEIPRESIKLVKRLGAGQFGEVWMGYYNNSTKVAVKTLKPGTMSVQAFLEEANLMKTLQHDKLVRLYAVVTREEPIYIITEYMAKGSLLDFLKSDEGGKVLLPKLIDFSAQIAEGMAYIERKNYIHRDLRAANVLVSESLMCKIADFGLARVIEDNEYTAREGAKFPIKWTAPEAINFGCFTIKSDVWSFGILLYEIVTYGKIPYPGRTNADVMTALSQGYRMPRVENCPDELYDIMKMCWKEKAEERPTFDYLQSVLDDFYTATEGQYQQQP

Cc1cc(/C=C/C#N)cc(C)c1Nc1ccnc(Nc2ccc(C#N)cc2)n1 [Rilpivirine, 4-[[4-[4-[(E)-2-cyanoethenyl]-2,6-dimethylanilino]pyrimidin-2-yl]amino]benzonitrile]
level of auto-phosphorylated Aurora A (Thr288) [1]: marked decrease in the level of auto-phosphorylated protein | level of auto-phosphorylated Aurora A (Thr288) [2]: marked decrease in the level of auto-phosphorylated protein | percent inhibition of the other 424 kinases [3]: less than 70% | kinase selectivity ([3]; panel of 429 kinases): selective inhibitor of Aurora A | inhibition at 1 µM (Aurora A kinase; [4]): 86% | Ki (Aurora A kinase; cell free kinase assay): 130 nM | inhibitory activity against Aurora A (Aurora A kinase; [5]): potently inhibits | inhibitory activity against FLT3 (FLT3): some inhibitory activity | inhibition at 1 µM (YES kinase): 83% | inhibition at 1 µM (LYN): 77% | inhibition at 1 µM (PIM1; [4]): 78% | inhibitory activity against PIM1 (PIM1; [5]): some inhibitory activity | inhibitory activity against Aurora B (Aurora B kinase): some inhibitory activity | inhibitory activity against JAK1 (JAK1): some inhibitory activity
